The target in series [1] is Vascular endothelial growth factor receptor 2 (Homo sapiens, UniProt P35968). Put plainly: Inhibition of VEGFR2.
Series [2] deals with T1, Angiopoietin-1 receptor (Homo sapiens, UniProt Q02763). Put plainly: Inhibition of TIE2.
Series [3] has as its target T1, Angiopoietin-1 receptor. Put plainly: Inhibition of TIE2 at 300 nM.
The target in series [4] is Vascular endothelial growth factor receptor 2 (Mus musculus, UniProt P35918). Put plainly: Inhibition of mouse VEGFR2 autophosphorylation in NIH3T3 cell.
Sequence of Vascular endothelial growth factor receptor 2 (Mus musculus, UniProt P35918) (P35918 whole entry): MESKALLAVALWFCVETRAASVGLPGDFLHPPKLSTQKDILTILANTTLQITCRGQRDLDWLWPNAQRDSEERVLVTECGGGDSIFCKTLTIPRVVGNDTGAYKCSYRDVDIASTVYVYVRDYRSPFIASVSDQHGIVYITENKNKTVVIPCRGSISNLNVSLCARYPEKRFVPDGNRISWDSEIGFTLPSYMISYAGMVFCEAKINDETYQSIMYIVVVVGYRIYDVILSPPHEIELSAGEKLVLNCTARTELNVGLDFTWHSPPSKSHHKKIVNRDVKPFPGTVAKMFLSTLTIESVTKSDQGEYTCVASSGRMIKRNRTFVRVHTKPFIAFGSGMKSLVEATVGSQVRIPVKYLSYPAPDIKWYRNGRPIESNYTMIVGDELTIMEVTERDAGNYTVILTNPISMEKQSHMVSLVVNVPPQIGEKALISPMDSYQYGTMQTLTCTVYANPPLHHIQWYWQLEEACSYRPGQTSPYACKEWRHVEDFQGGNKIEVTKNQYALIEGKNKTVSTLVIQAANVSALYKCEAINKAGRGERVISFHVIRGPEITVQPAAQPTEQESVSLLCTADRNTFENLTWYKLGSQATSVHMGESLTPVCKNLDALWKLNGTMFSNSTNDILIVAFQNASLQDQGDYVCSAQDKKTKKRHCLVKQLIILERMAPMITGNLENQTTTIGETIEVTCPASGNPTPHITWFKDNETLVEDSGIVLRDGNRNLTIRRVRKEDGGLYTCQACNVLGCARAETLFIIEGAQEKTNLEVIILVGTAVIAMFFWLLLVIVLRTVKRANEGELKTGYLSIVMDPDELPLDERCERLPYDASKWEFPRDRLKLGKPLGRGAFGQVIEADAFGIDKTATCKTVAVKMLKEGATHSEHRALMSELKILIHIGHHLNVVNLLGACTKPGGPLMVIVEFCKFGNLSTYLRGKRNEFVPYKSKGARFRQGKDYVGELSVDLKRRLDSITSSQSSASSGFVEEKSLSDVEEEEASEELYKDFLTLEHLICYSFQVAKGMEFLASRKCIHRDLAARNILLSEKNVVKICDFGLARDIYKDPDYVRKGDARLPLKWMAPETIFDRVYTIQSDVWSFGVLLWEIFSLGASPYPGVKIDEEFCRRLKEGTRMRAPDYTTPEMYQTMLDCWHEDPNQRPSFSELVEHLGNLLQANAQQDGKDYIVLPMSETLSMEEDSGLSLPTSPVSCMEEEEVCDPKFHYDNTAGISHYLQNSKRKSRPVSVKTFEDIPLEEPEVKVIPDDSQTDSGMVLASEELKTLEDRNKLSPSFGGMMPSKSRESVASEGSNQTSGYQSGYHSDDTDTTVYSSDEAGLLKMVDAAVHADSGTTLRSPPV
The nature of series [5]: Clearance in rat at 1 mg/kg, iv. The series is classed as ADME, organism-based. On the set-up: dose 1 mg/kg, route intravenous. The following applies: in vivo.
Series [6] in a line: AUC in rat. The series is classed as ADME, organism-based. The following applies: plasma.
The nature of series [7]: Volume of distribution in rat at 1 mg/kg, iv. In kind it is ADME, organism-based. More on the design: dose 1 mg/kg, route intravenous. The following applies: in vivo.
The test system of series [8] is HUVEC. Put plainly: Cytotoxicity against human HUVEC cells. The series is classed as cell-based.
Series [9] in a line: AUC (0 to infinity) in rat at 1 mg/kg, iv. The series is classed as ADME, organism-based. On the set-up: time infinity, dose 1 mg/kg, route intravenous. The following applies: plasma.
Series [10] can be described thus: Aqueous solubility at pH 7.4. In kind it is physicochemical. The following applies: aqueous medium.
Series [11] can be described thus: Cmax in rat at 5 mg/kg, po. In kind it is ADME, organism-based. More on the design: dose 5 mg/kg, route oral. The following applies: in vivo.
Series [12] in a line: AUC (0 to t) in rat at 5 mg/kg, po. In kind it is ADME, organism-based. More on the design: dose 5 mg/kg, route oral. The following applies: plasma.
Series [13] can be described thus: AUC (0 to t) in rat at 1 mg/kg, iv. The following applies: plasma. The series is classed as ADME, organism-based. On the set-up: dose 1 mg/kg, route intravenous.
A short description of series [14]: Aqueous solubility at pH 2.0. In kind it is physicochemical. The following applies: aqueous medium.
Series [15] is described as follows: Tmax in rat at 5 mg/kg, po. The following applies: in vivo. More on the design: dose 5 mg/kg, route oral. In kind it is ADME, organism-based.
A short description of series [16]: Half life in rat at 1 mg/kg, iv. The series is classed as ADME, organism-based. More on the design: dose 1 mg/kg, route intravenous. The following applies: in vivo.
Series [17] can be described thus: Bioavailability in rat at 5 mg/kg, po. In kind it is ADME, organism-based. The following applies: in vivo.
Series [18] has as its system Aorta. Put plainly: Toxicity in rat aortic ring. In kind it is tissue-based.
Series [19] concerns Aorta. Put plainly: Ex vivo antiangiogenic activity in rat aortic ring explant assessed as inhibition of microvessel growth after 8 days. In kind it is functional, tissue-based. The following applies: 192 h.
In series [20] the test system is HUVEC. Put plainly: Inhibition of angiopoietin 1-induced chemotaxis of HUVEC cells. The following applies: Homo sapiens. In kind it is functional, cell-based.
The nature of series [21]: AUC (0 to infinity) in rat at 5 mg/kg, po. In kind it is ADME, organism-based. On the set-up: time infinity, dose 5 mg/kg, route oral. The following applies: plasma.
Series [22] deals with T1, Angiopoietin-1 receptor. Put plainly: Inhibition of TIE2 at 1000 nM.

Some results are limits rather than exact numbers.

T1 sequence (Q02763 whole entry): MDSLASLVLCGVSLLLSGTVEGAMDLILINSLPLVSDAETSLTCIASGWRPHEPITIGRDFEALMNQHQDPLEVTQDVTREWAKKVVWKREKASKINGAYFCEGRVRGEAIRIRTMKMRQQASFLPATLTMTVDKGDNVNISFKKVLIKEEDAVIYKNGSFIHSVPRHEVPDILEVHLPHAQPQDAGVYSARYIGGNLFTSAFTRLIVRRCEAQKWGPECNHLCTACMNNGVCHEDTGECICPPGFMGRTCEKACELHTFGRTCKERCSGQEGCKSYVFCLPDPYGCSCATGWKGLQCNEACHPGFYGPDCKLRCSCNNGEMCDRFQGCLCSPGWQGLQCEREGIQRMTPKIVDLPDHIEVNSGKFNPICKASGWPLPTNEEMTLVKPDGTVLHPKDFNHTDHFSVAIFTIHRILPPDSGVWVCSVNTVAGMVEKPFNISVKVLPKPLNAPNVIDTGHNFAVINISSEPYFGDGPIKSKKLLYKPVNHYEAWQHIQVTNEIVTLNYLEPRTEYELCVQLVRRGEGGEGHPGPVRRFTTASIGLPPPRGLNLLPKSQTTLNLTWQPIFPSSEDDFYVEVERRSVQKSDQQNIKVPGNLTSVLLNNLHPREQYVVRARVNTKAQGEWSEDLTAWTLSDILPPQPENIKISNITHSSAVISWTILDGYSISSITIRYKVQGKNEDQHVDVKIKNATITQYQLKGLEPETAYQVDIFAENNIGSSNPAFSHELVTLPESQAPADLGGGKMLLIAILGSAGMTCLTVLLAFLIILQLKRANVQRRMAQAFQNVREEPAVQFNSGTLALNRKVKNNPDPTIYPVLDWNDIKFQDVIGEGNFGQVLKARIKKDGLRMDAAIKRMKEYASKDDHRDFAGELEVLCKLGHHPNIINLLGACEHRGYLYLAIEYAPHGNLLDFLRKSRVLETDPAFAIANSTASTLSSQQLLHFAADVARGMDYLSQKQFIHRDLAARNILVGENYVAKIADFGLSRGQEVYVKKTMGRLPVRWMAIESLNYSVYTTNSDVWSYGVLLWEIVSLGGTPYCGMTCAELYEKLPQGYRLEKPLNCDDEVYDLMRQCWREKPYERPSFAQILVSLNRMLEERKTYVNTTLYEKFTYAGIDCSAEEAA
Sequence of Vascular endothelial growth factor receptor 2 (Homo sapiens, UniProt P35968) (P35968 whole entry): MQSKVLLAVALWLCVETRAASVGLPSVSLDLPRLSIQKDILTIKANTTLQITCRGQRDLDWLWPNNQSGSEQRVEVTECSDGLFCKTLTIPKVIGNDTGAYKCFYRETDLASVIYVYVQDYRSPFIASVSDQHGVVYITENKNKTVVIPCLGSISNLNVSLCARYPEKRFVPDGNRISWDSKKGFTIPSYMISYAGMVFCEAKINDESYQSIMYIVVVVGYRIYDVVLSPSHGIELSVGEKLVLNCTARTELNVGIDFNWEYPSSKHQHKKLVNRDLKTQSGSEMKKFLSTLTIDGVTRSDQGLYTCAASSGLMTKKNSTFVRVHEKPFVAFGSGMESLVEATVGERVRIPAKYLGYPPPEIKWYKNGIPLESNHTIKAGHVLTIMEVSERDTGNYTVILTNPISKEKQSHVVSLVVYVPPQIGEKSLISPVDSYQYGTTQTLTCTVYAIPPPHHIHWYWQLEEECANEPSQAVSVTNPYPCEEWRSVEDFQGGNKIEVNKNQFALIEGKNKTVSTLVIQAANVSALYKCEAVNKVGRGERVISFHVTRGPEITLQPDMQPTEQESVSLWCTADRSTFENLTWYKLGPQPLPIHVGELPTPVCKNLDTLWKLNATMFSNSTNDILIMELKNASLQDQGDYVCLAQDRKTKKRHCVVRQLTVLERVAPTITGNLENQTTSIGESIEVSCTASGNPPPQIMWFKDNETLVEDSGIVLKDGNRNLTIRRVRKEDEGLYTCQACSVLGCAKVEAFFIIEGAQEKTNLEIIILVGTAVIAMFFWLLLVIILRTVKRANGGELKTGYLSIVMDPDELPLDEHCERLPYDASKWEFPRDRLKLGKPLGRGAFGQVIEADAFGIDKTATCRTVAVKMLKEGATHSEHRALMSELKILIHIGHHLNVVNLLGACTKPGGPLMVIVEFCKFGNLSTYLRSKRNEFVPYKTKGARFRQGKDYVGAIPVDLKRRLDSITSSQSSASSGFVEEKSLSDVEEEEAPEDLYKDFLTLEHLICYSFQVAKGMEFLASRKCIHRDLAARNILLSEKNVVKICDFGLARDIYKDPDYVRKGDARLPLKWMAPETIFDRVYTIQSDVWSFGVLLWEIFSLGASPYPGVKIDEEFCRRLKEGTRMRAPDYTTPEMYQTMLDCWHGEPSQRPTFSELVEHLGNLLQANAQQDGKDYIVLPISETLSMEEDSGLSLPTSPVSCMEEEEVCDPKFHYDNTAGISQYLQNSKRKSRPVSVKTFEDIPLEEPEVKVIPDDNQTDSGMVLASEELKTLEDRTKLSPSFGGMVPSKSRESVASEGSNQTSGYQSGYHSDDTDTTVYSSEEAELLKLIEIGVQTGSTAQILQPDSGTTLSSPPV

In the case of `CC(C)OCc1ccc2c(c1)c1c3c(c4c(c1n2CCCOC(=O)CN(C)C)Cc1ccccc1-4)C(=O)NC3` [CEP-7055], the IC50 in [1] was determined as 16 nM; at Angiopoietin-1 receptor [2], 1360 nM.
In the same order, the values of `CC(=O)c1ccc2c(c1)c1c3c(c4c(c1n2CC(C)C)CCc1nn(C)cc1-4)C(=O)NC3` are 21 nM and 83 nM.
As for `CCCCn1c2ccc(C(C)=O)cc2c2c3c(c4c(c21)CCc1nn(C)cc1-4)C(=O)NC3`, the inhibition against Angiopoietin-1 receptor [3] worked out at 50%. Also, the IC50 in [1] came out at 26 nM; on Angiopoietin-1 receptor [2], 300 nM.
For `Cc1csc(C(=O)c2ccc3c(c2)c2c4c(c5c(c2n3CC(C)C)CCc2nn(C)cc2-5)C(=O)NC4)c1`, the IC50 in series [1] is 11 nM; in series [4], greater than 50 nM; against Angiopoietin-1 receptor [2] it was 43 nM.
For the compound `Cc1ccsc1C(=O)c1ccc2c(c1)c1c3c(c4c(c1n2CC(C)C)CCc1nn(C)cc1-4)C(=O)NC3`, in [5], the clearance was 72 mL/min/kg. Further, the IC50 was 10 nM in series [1], less than 10 nM in series [4] and 5 nM against Angiopoietin-1 receptor [2]. Further, in series [6], the AUC was 261 ng·h/mL.
For the compound `Cn1cc2c(n1)CCc1c-2c2c(c3c1[nH]c1ccc(C(=O)c4cccs4)cc13)CNC2=O`, the IC50 in series [1] amounted to 2 nM; against Angiopoietin-1 receptor [2], 136 nM.
Consider `CC(C)Cn1c2ccc(C(=O)c3sccc3Cl)cc2c2c3c(c4c(c21)CCc1nn(C)cc1-4)C(=O)NC3`, for which, in series [7], the Vd amounted to 1.4 L/kg. In addition, the results for the Activity entry in the series on HUVEC [8], with Aorta [18] and in the series on HUVEC [20] were “Non-toxic”, “Non-toxic” and “Dose-dependent effect”, respectively. Also, the AUC(0-inf) stood at 1490 ng·h/mL in series [9] and 5140 ng·h/mL in series [21]. This compound also came in with a clearance in series [5] of 12 mL/min/kg. For the same compound, the solubility in series [10] and in series [14] was less than 1 µg/mL each time. This compound had a Cmax in series [11] of 842 ng/mL. Further, the area under the curve AUC(0-t) in series [12] turned out to be 3330 ng·h/mL; in series [13], 1440 ng·h/mL. In series [15], the time of peak concentration (Tmax) stood at 3.33 h. In addition, in [16], the half-life was 1.35 h. Further, the IC50 in series [1] is 7 nM; in series [4] it was 10 nM; against Angiopoietin-1 receptor [2], 13 nM. In series [17], this compound had a bioavailability of 69%. The EC50 with Aorta [19] was determined as 20 nM.
`CCn1c2ccc(C(C)=O)cc2c2c3c(c4c(c21)CCc1nn(C)cc1-4)C(=O)NC3` showed an inhibition on Angiopoietin-1 receptor [22] of 50%. The IC50 in series [1] amounted to 13 nM; on Angiopoietin-1 receptor [2], 1000 nM.
For `CC(C)Cn1c2ccccc2c2c3c(c4c(c21)CCc1nn(C)cc1-4)C(=O)NC3`, the IC50 was 17 nM in series [1] and 372 nM against Angiopoietin-1 receptor [2].
In the same order, the values of `CC(C)Cn1c2ccc(C(=O)c3ccoc3)cc2c2c3c(c4c(c21)CCc1nn(C)cc1-4)C(=O)NC3` are 8 nM and 58 nM.
In the same order, the values of `CC(=O)c1ccc2c(c1)c1c3c(c4c(c1n2C(C)C)CCc1nn(C)cc1-4)C(=O)NC3` are 75 nM and 726 nM.
As for `CCCn1c2ccc(C(=O)c3cccs3)cc2c2c3c(c4c(c21)CCc1nn(C)cc1-4)C(=O)NC3`, the IC50 in series [1] was 5 nM; on Angiopoietin-1 receptor [2] it was 26 nM.
In the same order, the values of `CC(=O)c1ccc2c(c1)c1c3c(c4c(c1n2C)CCc1nn(C)cc1-4)C(=O)NC3` are 10 nM and greater than 10000 nM.
In the same order, the values of `CCCn1c2ccccc2c2c3c(c4c(c21)CCc1nn(C)cc1-4)C(=O)NC3` are 16 nM and 136 nM.
In the same order, the values of `CC(C)n1c2ccc(C(=O)c3cccs3)cc2c2c3c(c4c(c21)CCc1nn(C)cc1-4)C(=O)NC3` are 15 nM and 24 nM.
On to `CCn1c2ccc(C(=O)c3cccs3)cc2c2c3c(c4c(c21)CCc1nn(C)cc1-4)C(=O)NC3`, for which the IC50 in series [1] was 1 nM; at Angiopoietin-1 receptor [2] it was 43 nM.
In the same order, the values of `CCn1c2ccccc2c2c3c(c4c(c21)CCc1nn(C)cc1-4)C(=O)NC3` are 15 nM and 1100 nM.
As for `CCCn1c2ccc(C(C)=O)cc2c2c3c(c4c(c21)CCc1nn(C)cc1-4)C(=O)NC3`, the IC50 was 3 nM in [1] and 272 nM against Angiopoietin-1 receptor [2].
For `CC(C)Cn1c2ccc(C(=O)c3ccco3)cc2c2c3c(c4c(c21)CCc1nn(C)cc1-4)C(=O)NC3`, the IC50 in [1] was determined as 4 nM; against Angiopoietin-1 receptor [2] it was 72 nM.
The compound `CC(=O)c1ccc2[nH]c3c4c(c5c(c3c2c1)CNC5=O)-c1cn(C)nc1CC4` showed an inhibition on Angiopoietin-1 receptor [22] of 28%. In addition, the IC50 in series [1] is 35 nM; at Angiopoietin-1 receptor [2] it was greater than 1000 nM.
Compound `CC(C)Cn1c2ccc(C(=O)c3cccs3)cc2c2c3c(c4c(c21)CCc1nn(C)cc1-4)C(=O)NC3` displayed a Vd in series [7] of 0.52 L/kg. In addition, the Activity result in the series with HUVEC [8] is “Non-toxic”; in the series with Aorta [18] it was “Non-toxic”; in the series with HUVEC [20], “Dose-dependent effect”. Moreover, the values for the AUC(0-inf) in [9] and in series [21] were 6650 ng·h/mL and 4130 ng·h/mL, respectively. This compound displayed a clearance in series [5] of 2.36 mL/min/kg. In addition, the solubility in series [10] and in series [14] was less than 1 µg/mL throughout. This compound also showed a Cmax in series [11] of 638 ng/mL. Moreover, the AUC(0-t) in [12] is 2820 ng·h/mL; in series [13], 5680 ng·h/mL. Besides, the Tmax in series [15] was 4 h. In addition, the half-life in series [16] is 2.32 h. For the same compound, the IC50 in series [1] came to 6 nM; in series [4], 10 nM; at Angiopoietin-1 receptor [2], 20 nM. The compound also showed a bioavailability in [17] of 12%. Besides, the EC50 in the series on Aorta [19] came to 20 nM.
As to `Cn1cc2c(n1)CCc1c-2c2c(c3c1[nH]c1ccccc13)CNC2=O`, the half-maximal inhibitory concentration (IC50) in series [1] came out at 16 nM; on Angiopoietin-1 receptor [2] it was 1360 nM.
In series [5], `CC(C)Cn1c2ccc(C(=O)c3sccc3Br)cc2c2c3c(c4c(c21)CCc1nn(C)cc1-4)C(=O)NC3` yielded a clearance of 138 mL/min/kg. Besides, the figures for the IC50 (in series [1]; in [4]; against Angiopoietin-1 receptor [2]) were 25 nM, less than 10 nM and 15 nM, respectively. Further, the AUC in series [6] worked out at 123 ng·h/mL.
Turning to `CC(C)Cn1c2ccc(C(=O)c3ccsc3)cc2c2c3c(c4c(c21)CCc1nn(C)cc1-4)C(=O)NC3`, the values for the IC50 (in [1]; against Angiopoietin-1 receptor [2]) were 13 nM and 63 nM, respectively.
